Structures are written as SMILES. Read-outs that look alike come from different tables or passages of the source.

This is an account of results in patent US20160046618A1, “Cyclopropyl Fused Thiazin-2-Amine Compounds as Beta-Secretase Inhibitors and Methods of Use” (AMGEN INC., priority 2014, published 2016).

One assay concerns the target Recombinant Cat D (Homo sapiens (Human), UniProt P07339). The assay can be described thus: In vitro enzymatic Cathepsin D (Cat D) FRET assay. To be noted: read-out: IC50 IP (μM) CatD. It is filed as biochemical. The procedure:
In Vitro Enzymatic Cathepsin D (Cat D) FRET (Fluorescence Resonance Energy Transfer) Assay
Recombinant Cat D was expressed in CHO cells. The assay buffer for CathepsinD is 0.05 M citrate pH 3.5, 10% DMSO final, 5 mM CHAPS. […] The assays are effectively started by the addition of different FRET substrates (20 nM for Cat D) and the combination is incubated for one hour. The FRET assay is terminated with by addition of Tris buffer, which raises the pH to neutrality, and the fluorescence is determined. The FRET substrate is a peptide with commercially available fluorophore and quencher, on opposite sides of the BACE cleavage site. The Cat D substrate peptide sequence is based on sequence #1 of Table 1 from Gulnik et al. FEBS Letters v413 p 379-384 1997. Proteolytic cleavage of the FRET substrate releases quenching of fluorescence (Cat D excitation 500 nm and emission 580 nm).

For assay [1], the system named is Aβ40 in conditioned medium of cells stably expressing Amyloid Precursor Protein (APP). The assay can be described thus: In vitro BACE-1 cell-based assay (Aβ40 sandwich ELISA). Conditions: read-out: IC50 IP (μM) BACE1 cell. The procedure:
In Vitro BACE-1 Cell-Based Assay
The cell-based assay measures inhibition or reduction of Aβ40 in conditioned medium of test compound treated cells expressing amyloid precursor protein. Cells stably expressing Amyloid Precursor Protein (APP) were plated at a density of 40K cells/well in 96 well plates (Costar). The cells were cultivated for 24 hours at 37° C. and 5% CO2 in DMEM supplemented with 10% FBS. The test compounds were then added to cells in 10-point dose response concentrations with the starting concentration being either 100 μM or 10 μM. The compounds were diluted from stock solutions in DMSO and the final DMSO concentration of the test compounds on cells was 0.1%. After 24 h of incubation with the test compounds the supernatant conditioned media was collected and the Aβ40 levels were determined using a sandwich ELISA. The IC50 of the compound was calculated from the percent of control or percent inhibition of Aβ40 as a function of the concentration of the test compound.
The sandwich ELISA to detect Aβ40 was performed in 96 well microtiter plates, which were pre-treated with goat anti-rabbit IgG (Pierce). The capture and detecting antibody pair that were used to detect Aβ40 from cell supernatants were affinity purified pAb40 (Biosource) and biotinylated 6E10 (Signet Labs Inc.), respectively. The optimal concentration for the pAb40 antibody was 3 μg/ml in Superblock/TBS (Pierce) that was supplemented with 0.05% Tween 20 (Sigma). […] Cellular supernatants were incubated with the capture antibody for 3 h at 4° C., followed by 3 wash steps in TBS-tween (0.05%). The detecting antibody incubation was for 2 h at 4° C., again followed by the wash steps as described previously. The final readout of the ELISA is Time-Resolved Fluorescence (counts per minute) using Delfia reagents Streptavidin-Europium and Enhancement solutions (Perkin Elmer) and the Victor 2 multilabel counter (Perkin Elmer).

The target in a further assay is human recombinant BACE1 (Homo sapiens (Human), UniProt P56817). In words: In vitro enzymatic BACE1 FRET assay. Format: biochemical. Conditions: BACE1 FRET enzyme assay; read-out: IC50 IP (μM) BACE1 enzyme. Here is the method: These recombinant proteins were further purified using Ni-NTA affinity chromatography (Qiagen). […] This assay is effectively started by the addition of FRET substrate (50 nM) and the combination is incubated for one hour. The FRET assay is terminated by addition of Tris buffer, which raises the pH to neutrality, and the fluorescence is determined. The FRET substrate is a peptide with commercially available fluorophore and quencher, on opposite sides of the BACE cleavage site. Proteolytic cleavage of the FRET substrate releases quenching of fluorescence (excitation 488 nm and emission 590 nm).
Sequence of human recombinant BACE1 (P56817 46-501): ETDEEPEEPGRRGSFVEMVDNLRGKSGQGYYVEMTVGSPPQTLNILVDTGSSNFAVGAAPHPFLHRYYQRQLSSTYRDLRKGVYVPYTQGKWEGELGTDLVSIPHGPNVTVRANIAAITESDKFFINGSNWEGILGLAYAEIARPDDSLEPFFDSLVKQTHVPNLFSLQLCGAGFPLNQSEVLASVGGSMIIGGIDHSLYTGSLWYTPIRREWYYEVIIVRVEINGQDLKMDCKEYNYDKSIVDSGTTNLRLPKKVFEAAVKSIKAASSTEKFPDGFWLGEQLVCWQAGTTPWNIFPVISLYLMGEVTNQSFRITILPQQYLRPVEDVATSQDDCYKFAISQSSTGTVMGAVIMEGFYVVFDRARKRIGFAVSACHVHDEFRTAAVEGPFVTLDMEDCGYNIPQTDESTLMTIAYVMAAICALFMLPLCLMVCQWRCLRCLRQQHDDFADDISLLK

Sequence of Recombinant Cat D (P07339 65-412): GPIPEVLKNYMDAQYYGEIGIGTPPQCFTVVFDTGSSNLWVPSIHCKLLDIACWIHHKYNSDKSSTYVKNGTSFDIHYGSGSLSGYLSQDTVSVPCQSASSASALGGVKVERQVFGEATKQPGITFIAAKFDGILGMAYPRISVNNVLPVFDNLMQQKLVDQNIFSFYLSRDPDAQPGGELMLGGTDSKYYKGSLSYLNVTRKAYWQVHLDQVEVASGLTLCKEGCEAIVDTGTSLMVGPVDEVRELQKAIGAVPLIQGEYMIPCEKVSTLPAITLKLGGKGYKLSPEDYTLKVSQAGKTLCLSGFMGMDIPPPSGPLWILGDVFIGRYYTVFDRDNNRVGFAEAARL

In general, IC50 refers to the point on the concentration scale where inhibition reaches its midpoint. `COc1cnc(C(=O)Nc2cc(F)c(F)c([C@@]3(C)N=C(N)S[C@H]4C[C@H]43)c2)cn1` [Example 7, N-(3-((1S,5S,6S)-3-amino-5-methyl-2-thia-4-azabicyclo[4.1.0]hept-3-en-5-yl)-4,5-difluorophenyl)-5-methoxy-2-pyrazinecarboxamide]: the results for the IC50 (at Recombinant Cat D (Cathepsin D FRET enzyme assay); in assay [1] (BACE1 cell-based assay); on human recombinant BACE1) were 719 µM, 0.00636 µM and 0.0141 µM, respectively. The like results for `Cc1cc(Cl)cnc1C(=O)Nc1cc(F)c(F)c([C@@]2(C)N=C(N)S[C@H]3C[C@H]32)c1` [Example 8, N-(3-((1S,5S,6S)-3-amino-5-methyl-2-thia-4-azabicyclo[4.1.0]hept-3-en-5-yl)-4,5-difluorophenyl)-5-chloro-3-methyl-2-pyridinecarboxamide] were, in that order, 418 µM, 0.0563 µM and 0.00528 µM. Turning to `CCOC(=O)[C@]12C[C@H]1[C@@](C)(c1cc(NC(=O)c3ccc(Cl)cn3)cc(F)c1F)N=C(N)S2` [Example 9, (1S,5S,6S)-ethyl 3-amino-5-(5-(5-chloropicolinamido)-2,3-difluorophenyl)-5-methyl-2-thia-4-azabicyclo[4.1.0]hept-3-ene-1-carboxylate], the half-inhibitory concentration (IC50) turned out to be 366 µM at Recombinant Cat D (Cathepsin D FRET enzyme assay), 0.0232 µM in assay [1] (BACE1 cell-based assay) and 0.00679 µM on human recombinant BACE1. With `C[C@]1(c2cc(NC(=O)c3ccc(C#N)cn3)cc(F)c2F)N=C(N)S[C@H]2C[C@H]21` [Example 14, N-(3-((1S,5S,6S)-3-amino-5-methyl-2-thia-4-azabicyclo[4.1.0]hept-3-en-5-yl)-4,5-difluorophenyl)-5-cyano-2-pyridinecarboxamide], the 50% inhibitory concentration (IC50) at Recombinant Cat D (Cathepsin D FRET enzyme assay) amounted to 797 µM; in assay [1] (BACE1 cell-based assay), 0.00569 µM; on human recombinant BACE1, 0.0109 µM. On the same counts, the results for `Cc1cc(OC(F)F)cnc1C(=O)Nc1cc(F)c(F)c([C@@]2(C)N=C(N)S[C@H]3C[C@H]32)c1` [Example 15, N-(3-((1S,5S,6S)-3-amino-5-methyl-2-thia-4-azabicyclo[4.1.0]hept-3-en-5-yl)-4,5-difluorophenyl)-5-(difluoromethoxy)-3-methyl-2-pyridinecarboxamide] are 506 µM, 0.00994 µM and 0.0124 µM.

As for `COc1cnc(C(=O)Nc2cc(F)c(F)c([C@@]3(CF)N=C(N)S[C@H]4C[C@H]43)c2)cn1` [Example 16, N-(3-((1S,5S,6S)-3-amino-5-(fluoromethyl)-2-thia-4-azabicyclo[4.1.0]hept-3-en-5-yl)-4,5-difluorophenyl)-5-methoxy-2-pyrazinecarboxamide], the concentration for half-maximal inhibition (IC50) at Recombinant Cat D (Cathepsin D FRET enzyme assay) amounted to 875 µM; in assay [1] (BACE1 cell-based assay), 0.00908 µM; at human recombinant BACE1, 0.0145 µM. `COc1cnc(C(=O)Nc2cc(F)c(F)c([C@@]3(CF)N=C(N)S[C@H]4C[C@H]43)c2)c(C)n1` [Example 17, N-(3-((1S,5S,6S)-3-amino-5-(fluoromethyl)-2-thia-4-azabicyclo[4.1.0]hept-3-en-5-yl)-4,5-difluorophenyl)-5-methoxy-3-methyl-2-pyrazinecarboxamide]: the half-maximal inhibitory concentration (IC50) turned out to be 863 µM at Recombinant Cat D (Cathepsin D FRET enzyme assay), 0.0548 µM in assay [1] (BACE1 cell-based assay) and 0.026 µM on human recombinant BACE1. The like results for `NC1=N[C@](CF)(c2cc(NC(=O)c3ccc(Cl)cn3)cc(F)c2F)[C@@H]2C[C@@H]2S1` [Example 18, N-(3-((1S,5S,6S)-3-amino-5-(fluoromethyl)-2-thia-4-azabicyclo[4.1.0]hept-3-en-5-yl)-4,5-difluorophenyl)-5-chloropicolinamide] were, in that order, 34.3 µM, 0.0169 µM and 0.0172 µM. For the compound `C#C[C@H](C)Oc1cnc(C(=O)Nc2cc(F)c(F)c([C@@]3(C)N=C(N)S[C@@]4(CF)C[C@H]43)c2)c(C)n1` [Example 616, N-(3-((1S,5S,6S)-3-amino-1-(fluoromethyl)-5-methyl-2-thia-4-azabicyclo[4.1.0]hept-3-en-5-yl)-4,5-difluorophenyl)-3-methyl-5-(((1S)-1-methyl-2-propyn-1-yl)oxy)-2-pyrazinecarboxamide], the IC50 in assay [1] came to 0.0329 µM.

Turning to `C#C[C@H](C)Oc1cnc(C(=O)Nc2cc(F)c(F)c([C@@]3(C)N=C(N)S[C@@]4(COC)C[C@H]43)c2)c(C)n1` [Example 622, N-(3-((1S,5S,6S)-3-amino-1-(methoxymethyl)-5-methyl-2-thia-4-azabicyclo[4.1.0]hept-3-en-5-yl)-4,5-difluorophenyl)-3-methyl-5-(((1S)-1-methyl-2-propyn-1-yl)oxy)-2-pyrazinecarboxamide], the half-inhibitory concentration (IC50) in assay [1] was 0.0438 µM.

As to `C#C[C@H](C)Oc1cnc(C(=O)Nc2ccc(F)c([C@@]3(C)N=C(N)S[C@@]4(C(F)F)C[C@@H]34)c2)c(C)c1` [Example 648, N-(3-((1S,5S,6S)-3-amino-1-(difluoromethyl)-5-methyl-2-thia-4-azabicyclo[4.1.0]hept-3-en-5-yl)-4-fluorophenyl)-3-methyl-5-(((1S)-1-methyl-2-propyn-1-yl)oxy)-2-pyridinecarboxamide], the concentration for half-maximal inhibition (IC50) in assay [1] came to 0.222 µM. In the case of `C#CCOc1cnc(C(=O)Nc2ccc(F)c([C@@]3(C)N=C(N)S[C@@]4(CF)C[C@H]43)c2)cn1` [Example 822, N-(3-((1S,5S,6S)-3-amino-1-(fluoromethyl)-5-methyl-2-thia-4-azabicyclo[4.1.0]hept-3-en-5-yl)-4-fluorophenyl)-5-(2-propyn-1-yloxy)-2-pyrazinecarboxamide], in assay [1], the 50% inhibitory concentration (IC50) was determined as 0.000378 µM.

Take `[2H]C([2H])(C#C)Oc1cnc(C(=O)Nc2cc(F)c(F)c([C@@]3(C)N=C(N)S[C@@]4(COC)C[C@H]43)c2)cn1` [Example 840]: the half-inhibitory concentration (IC50) in assay [1] was found to be 0.0006 µM. The same measure, in the same setting: for `C[C@]1(c2cc(NC(=O)c3ccc(Cl)cn3)cc(F)c2F)N=C(N)S[C@@]2(C(=O)O)C[C@H]21` [Example 899, Lithium (1S,5S,6S)-3-amino-5-(5-(5-chloropicolinamido)-2,3-difluorophenyl)-5-methyl-2-thia-4-azabicyclo[4.1.0]hept-3-ene-1-carboxylate] the value was 2.45 µM. Same read-out and setting: for `NC1=N[C@](CF)(c2cc(Nc3nccc4nc(OCc5ncco5)cnc34)ccc2F)[C@@H]2C[C@]2(c2c[nH]nn2)S1` [Example 957, N-(3-((1S,5S,6S)-3-amino-5-(fluoromethyl)-1-(1H-1,2,3-triazol-4-yl)-2-thia-4-azabicyclo[4.1.0]hept-3-en-5-yl)-4-fluorophenyl)-2-(1,3-oxazol-2-ylmethoxy)pyrido[3,4-b]pyrazin-5-amine] the value was 0.00616 µM. Turning to `CCOc1cnc(C(=O)Nc2cc(F)c(F)c([C@@]3(C)N=C(N)S[C@@]4(COC)C[C@H]43)c2)cn1` [Example 1038, N-(3-((1S,5S,6S)-3-amino-1-(methoxymethyl)-5-methyl-2-thia-4-azabicyclo[4.1.0]hept-3-en-5-yl)-4,5-difluorophenyl)-5-ethoxy-2-pyrazinecarboxamide], on Recombinant Cat D, the IC50 is 1300 µM. As for `C=CC(C)Oc1cnc(C(=O)Nc2ccc(F)c([C@@]3(C)N=C(N)S[C@@]4(COC)C[C@H]43)c2)cn1` (stereo partly drawn) [Example 1063, N-(3-((1S,5S,6S)-3-amino-1-(methoxymethyl)-5-methyl-2-thia-4-azabicyclo[4.1.0]hept-3-en-5-yl)-4-fluorophenyl)-5-(but-3-en-2-yloxy)pyrazine-2-carboxamide], in assay [1], the IC50 was 0.1 µM.
